{
  "source": "ChEMBL document CHEMBL5338754",
  "about": "“Identification of Binding Sites in the Nucleotide-Binding Domain of P-Glycoprotein for a Potent and Nontoxic Modulator, the Amine-Containing Monomeric Flavonoid FM04” (J Med Chem, 2023)",
  "key": {"[1]": {"target": "ATP-dependent translocase ABCB1 (Homo sapiens, UniProt P08183, T1226F)", "sequence (P08183 whole entry T1226F)": "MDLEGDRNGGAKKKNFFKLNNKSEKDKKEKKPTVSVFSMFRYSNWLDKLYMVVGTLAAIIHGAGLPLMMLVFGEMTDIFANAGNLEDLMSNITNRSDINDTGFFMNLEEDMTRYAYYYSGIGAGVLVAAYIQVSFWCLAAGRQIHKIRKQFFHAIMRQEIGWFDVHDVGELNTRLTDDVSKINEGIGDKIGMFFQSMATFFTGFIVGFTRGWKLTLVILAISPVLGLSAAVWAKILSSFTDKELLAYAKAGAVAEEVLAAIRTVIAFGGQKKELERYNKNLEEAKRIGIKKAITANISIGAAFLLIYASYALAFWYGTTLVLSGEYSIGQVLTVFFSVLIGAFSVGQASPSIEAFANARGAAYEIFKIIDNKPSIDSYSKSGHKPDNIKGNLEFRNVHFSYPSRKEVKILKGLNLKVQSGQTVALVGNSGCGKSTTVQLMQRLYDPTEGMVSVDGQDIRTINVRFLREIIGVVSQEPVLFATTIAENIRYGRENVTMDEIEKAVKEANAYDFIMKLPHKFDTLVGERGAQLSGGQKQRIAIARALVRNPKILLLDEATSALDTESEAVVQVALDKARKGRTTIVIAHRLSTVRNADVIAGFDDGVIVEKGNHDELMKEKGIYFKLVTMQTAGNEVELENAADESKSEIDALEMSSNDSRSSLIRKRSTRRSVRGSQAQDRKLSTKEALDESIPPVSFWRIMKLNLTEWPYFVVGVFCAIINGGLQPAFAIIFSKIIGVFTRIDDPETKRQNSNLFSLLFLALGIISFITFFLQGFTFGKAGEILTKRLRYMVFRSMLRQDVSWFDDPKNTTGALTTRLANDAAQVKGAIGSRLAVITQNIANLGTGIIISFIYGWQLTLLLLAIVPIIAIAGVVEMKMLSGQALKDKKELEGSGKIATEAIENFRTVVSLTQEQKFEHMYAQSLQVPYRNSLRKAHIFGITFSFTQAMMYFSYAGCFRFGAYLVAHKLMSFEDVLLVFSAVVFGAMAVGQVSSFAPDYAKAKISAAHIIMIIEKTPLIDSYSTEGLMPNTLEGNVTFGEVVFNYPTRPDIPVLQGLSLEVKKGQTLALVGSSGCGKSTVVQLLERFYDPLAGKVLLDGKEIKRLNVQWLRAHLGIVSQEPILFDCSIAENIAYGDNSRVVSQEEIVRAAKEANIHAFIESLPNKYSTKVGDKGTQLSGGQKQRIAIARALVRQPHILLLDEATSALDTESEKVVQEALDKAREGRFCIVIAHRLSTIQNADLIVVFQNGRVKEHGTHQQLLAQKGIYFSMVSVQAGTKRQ", "assay": "Negative allosteric modulator activity at human P-gp T1226F mutant expressed in HEK293FT cells assessed as reversal of P-gp mediated PTX resistance by measuring sensitivity fold change incubated for 5 days by MTS assay", "assay_type": "cell-based", "settings": "120 h, time 5 day"}, "[2]": {"target": "T1, ATP-dependent translocase ABCB1 (Homo sapiens, UniProt P08183, I1115L)", "T1 sequence (P08183 whole entry I1115L)": "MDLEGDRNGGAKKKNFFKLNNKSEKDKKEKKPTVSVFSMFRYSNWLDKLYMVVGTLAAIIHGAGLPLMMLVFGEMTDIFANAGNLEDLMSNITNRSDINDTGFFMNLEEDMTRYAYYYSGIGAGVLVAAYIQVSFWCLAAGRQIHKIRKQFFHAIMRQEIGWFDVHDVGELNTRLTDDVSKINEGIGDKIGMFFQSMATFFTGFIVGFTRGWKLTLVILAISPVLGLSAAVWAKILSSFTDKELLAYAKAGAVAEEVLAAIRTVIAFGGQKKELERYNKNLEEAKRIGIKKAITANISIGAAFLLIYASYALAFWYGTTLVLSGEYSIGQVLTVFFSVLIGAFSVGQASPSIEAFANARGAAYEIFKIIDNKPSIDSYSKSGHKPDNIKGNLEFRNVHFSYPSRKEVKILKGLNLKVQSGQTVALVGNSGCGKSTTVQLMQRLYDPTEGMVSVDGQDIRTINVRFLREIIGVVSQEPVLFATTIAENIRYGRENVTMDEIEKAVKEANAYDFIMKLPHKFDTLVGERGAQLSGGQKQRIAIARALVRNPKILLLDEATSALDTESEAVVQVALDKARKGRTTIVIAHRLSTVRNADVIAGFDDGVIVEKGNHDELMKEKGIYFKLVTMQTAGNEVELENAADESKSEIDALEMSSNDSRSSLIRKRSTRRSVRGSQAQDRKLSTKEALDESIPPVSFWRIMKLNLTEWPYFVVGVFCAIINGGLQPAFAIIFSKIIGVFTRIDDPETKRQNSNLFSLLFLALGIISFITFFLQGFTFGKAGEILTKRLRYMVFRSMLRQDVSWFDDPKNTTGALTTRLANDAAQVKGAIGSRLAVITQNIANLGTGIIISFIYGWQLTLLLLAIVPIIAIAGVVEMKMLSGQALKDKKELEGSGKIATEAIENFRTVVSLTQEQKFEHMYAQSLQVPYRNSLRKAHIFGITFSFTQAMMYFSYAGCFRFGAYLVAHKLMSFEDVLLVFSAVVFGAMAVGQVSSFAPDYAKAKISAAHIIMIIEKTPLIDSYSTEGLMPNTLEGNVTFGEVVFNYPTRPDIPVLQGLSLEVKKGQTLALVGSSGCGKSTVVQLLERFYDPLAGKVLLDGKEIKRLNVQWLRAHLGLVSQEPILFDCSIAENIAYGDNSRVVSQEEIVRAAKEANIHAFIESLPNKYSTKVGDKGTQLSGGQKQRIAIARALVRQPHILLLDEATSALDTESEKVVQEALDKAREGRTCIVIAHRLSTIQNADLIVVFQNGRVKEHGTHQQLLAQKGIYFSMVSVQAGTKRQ", "assay": "Negative allosteric modulator activity at human P-gp I1115L mutant expressed in HEK293FT cells assessed as increase in intracellular doxorubicin accumulation using doxorubicin as substrate at 1 uM incubated for 150 mins by microplate reader assay (reference value: 58.9 +/- 2.2 %)", "assay_type": "cell-based", "settings": "2.5 h"}, "[3]": {"target": "ATP-dependent translocase ABCB1 (Homo sapiens, UniProt P08183, Q1193F)", "sequence (P08183 whole entry Q1193F)": "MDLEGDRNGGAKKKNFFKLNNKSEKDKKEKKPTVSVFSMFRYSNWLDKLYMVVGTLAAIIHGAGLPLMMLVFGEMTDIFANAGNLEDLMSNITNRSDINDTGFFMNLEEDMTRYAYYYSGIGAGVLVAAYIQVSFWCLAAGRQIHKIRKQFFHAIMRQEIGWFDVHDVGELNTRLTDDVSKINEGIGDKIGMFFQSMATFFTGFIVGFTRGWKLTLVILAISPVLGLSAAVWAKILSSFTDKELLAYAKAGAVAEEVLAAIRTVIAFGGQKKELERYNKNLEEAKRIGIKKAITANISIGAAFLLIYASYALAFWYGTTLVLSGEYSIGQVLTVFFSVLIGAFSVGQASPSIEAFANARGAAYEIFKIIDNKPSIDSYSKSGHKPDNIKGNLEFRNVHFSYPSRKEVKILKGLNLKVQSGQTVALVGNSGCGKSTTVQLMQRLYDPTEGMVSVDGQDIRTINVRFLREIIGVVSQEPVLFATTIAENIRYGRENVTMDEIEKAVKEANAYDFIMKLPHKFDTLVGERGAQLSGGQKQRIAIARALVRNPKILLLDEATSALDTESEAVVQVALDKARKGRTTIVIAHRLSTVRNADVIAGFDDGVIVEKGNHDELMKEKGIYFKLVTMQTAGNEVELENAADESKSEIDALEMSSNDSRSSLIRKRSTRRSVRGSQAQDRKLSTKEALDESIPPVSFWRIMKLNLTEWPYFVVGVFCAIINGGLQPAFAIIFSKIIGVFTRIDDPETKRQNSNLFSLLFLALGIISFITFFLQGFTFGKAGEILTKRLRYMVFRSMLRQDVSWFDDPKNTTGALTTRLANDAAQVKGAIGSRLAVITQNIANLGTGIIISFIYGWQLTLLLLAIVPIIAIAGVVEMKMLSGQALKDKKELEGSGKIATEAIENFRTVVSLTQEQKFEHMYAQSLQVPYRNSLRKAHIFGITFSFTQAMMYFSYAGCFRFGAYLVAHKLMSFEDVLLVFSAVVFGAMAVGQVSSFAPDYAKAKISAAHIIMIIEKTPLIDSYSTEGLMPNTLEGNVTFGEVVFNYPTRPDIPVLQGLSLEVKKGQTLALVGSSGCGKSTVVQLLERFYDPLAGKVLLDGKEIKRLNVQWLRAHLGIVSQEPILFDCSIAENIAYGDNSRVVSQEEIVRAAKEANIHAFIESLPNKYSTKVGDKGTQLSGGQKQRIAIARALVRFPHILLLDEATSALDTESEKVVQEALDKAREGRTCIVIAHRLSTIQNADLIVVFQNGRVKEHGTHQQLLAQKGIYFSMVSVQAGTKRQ", "assay": "Activation of P-gp ATPase activity in human P-gp Q1193F mutant expressed in HEK293FT cell microsomes at 20 uM incubated for 1 hr in presence of ATP by Glo-luminescence based microplate reader assay (reference value: 0.41 +/- 0.06 pmol/min/microg)", "parameters": "species or system Microsome"}, "[4]": {"target": "T1, ATP-dependent translocase ABCB1", "assay": "Negative allosteric modulator activity at human P-gp I1115L mutant expressed in HEK293FT cells assessed as fold change in intracellular doxorubicin accumulation using doxorubicin as substrate at 1 uM incubated for 150 mins by microplate reader assay relative to DMSO", "assay_type": "cell-based", "settings": "2.5 h"}},
  "data": [
    {"compound": "O=c1cc(-c2ccc(OCCOCCNCc3ccccc3)cc2)oc2ccccc12", "values": [
      {"measurement": "fold change (FC)", "setting": "[1]", "value": 59.4},
      {"measurement": "Activity", "setting": "[2]", "value": 97.2, "unit": "%"},
      {"measurement": "Activity", "setting": "[3]", "value": 0.45, "unit": "pmol/min/µg"},
      {"measurement": "fold change (FC)", "setting": "[4]", "value": 1.7}
    ]}
  ]
}
